Test results from a melting point compilation (Tetko et al.; mined from patent text by program, amines drawn as free bases though some values may be those of a salt).

Structure (SMILES) | melting point [°C]
CS(=O)(=O)n1c(=NC(F)(F)F)oc2ccccc21 | 142 to 146
CCCCCCCCN(C)C(N)=NC#N | 101 to 104
O=C(O)CCCCC[C@H]1CC[C@@H](O)CC1 | 83 to 85
CCOC(=O)/C(=N/OCc1ccccc1)c1ccc(OCCOc2ccc3ccccc3c2)s1 | 111 to 112
CN(C)C(=O)N1CCC(C(=O)N(CCCN2CCC(Cc3ccccc3)CC2)c2ccc(Cl)c(Cl)c2)CC1 | 109 to 112
[N-]=[N+]=Nc1cc2ccccc2oc1=O | 108 to 112
Cc1cccnc1C(=O)c1[nH]c2cc(Cl)ccc2c1NC(=O)CC(C)C | 142 to 144
CCn1nc(-c2ccccc2)c(-c2csc(-c3ccc(OC)cc3)n2)c(Nc2cccnc2)c1=O | 201 to 202
COc1ccnc(N2CCN(Cc3ccc(C(C)NC(C)=O)cc3)CC2)n1 (stereo not given) | 113 to 115
Cc1ncsc1C(=O)Nc1ccc(-n2nc(C3CC3)cc2C2CC2)c(F)c1 | 102 to 106
Oc1ccc(-c2nc3ccccc3o2)cc1 | 253
COC(=O)CCC#Cc1cc(Cl)ccc1NS(=O)(=O)c1cccc(Cl)c1Cl | 64
Cc1cc(=O)c(-c2ccccc2)c(-c2ccc(S(N)(=O)=O)cc2)o1 | 218
Cc1ccc(N2C(=O)c3nccnc3C2OC(=O)N2CCNCC2)nc1 (stereo not given) | 182
O=C(CC1COC1)N[C@H]1CC[C@H](CCN2CCN(c3nccc4c3OCC4)CC2)CC1 | 175
Cc1cc(-n2cc(-c3ccc(S(C)(=O)=O)cc3)nc2C)cc2ccc(=O)[nH]c12 | 345 to 347
OCCc1nnc(S)s1 | 101 to 103
COC(=O)[C@H](Cc1ccccc1)NC(=O)c1cnccn1 | 152 to 155
CCOC(=O)C(=Cc1ccc(-c2ccc(Cl)cc2)o1)C(=O)OCC | 78 to 80
O=C1CC(c2ccccc2Cl)Cc2[nH]nc(-c3ccccc3)c21 (stereo not given) | 218 to 222
CC(C)(C)c1ccc(S(=O)(=O)N2c3ccccc3C[C@H]2C(=O)NCc2ccc(C(=O)O)cc2)cc1 | 105 to 120
c1ccc(Nc2ccnc3cn[nH]c23)cc1 | 222 to 224
Cc1c(C(=O)O)cccc1-n1c(C)ccc1C | 142 to 143
C[C@H](NC(=O)OC(C)(C)C)C(=O)N[C@H](CCC(=O)O)C(N)=O | 98
Cc1c(C(F)(F)F)ncn(-c2cc([N+](=O)[O-])c(F)cc2F)c1=O | 157
COC(=O)C(=NO)c1cccc(Oc2ccccc2)c1 | 122 to 123
Cc1cc(-c2[nH]c3ccc([N+](=O)[O-])cc3c2C)cc(C)c1O | 229 to 231
O=Cc1c(Cl)ccc(Br)c1F | 92 to 93
Cc1c(-c2ccccc2)oc2c(C=O)cccc2c1=O | 124 to 126
CCOC(=O)NNC(=O)CC(F)=C(F)F | 110

Other lines, results leading:

melting point [°C] | Structure (SMILES)
234 to 235 | CC(=O)NC[C@H]1CN(c2ccc(C(=O)c3cnc4ccc(Cl)cn34)cc2)C(=O)O1
75 to 80 | CS(=O)(=O)c1ccc(C(CC2CCCC2)C(=O)Nc2ccncn2)cc1Br (stereo not given)
138 to 140 | CCOP(=O)(CNC(=O)C[C@H]1O[C@H](c2cccc(OC)c2OC)c2cc(Cl)ccc2N(CC(C)(C)CO)C1=O)OCC
138 to 140 | CC(=O)Nc1cc(OCCC(=O)O)ccc1Oc1ccccc1
186 to 187 | CC(=O)OCS(=O)(=O)C1=CCC2C3CCC4=CC(=O)C=CC4(C)C3(F)C(O)CC12C (stereo not given)
150 to 153 | C[C@H](CNC(=O)c1c(Cl)ccc2nc(N3CCC(C(=O)O)CC3)ccc12)c1ccccc1
205 to 208 | COc1cc(Br)c(OC(=O)c2ccc(OC)c(C(F)(F)F)c2)c(NC(=O)c2ccc(OC)c(C(F)(F)F)c2)c1
74 | CN(C)Cc1ccc(CSCCNC(=O)NCCCCN(C)CCN(Cc2ccc(F)cc2)c2ccccn2)o1
81 to 83 | CC(=O)Oc1ccc(C(=O)c2cccc(OC(C)=O)c2)cc1
150 to 152 | CN(C)CCOc1cc2c(Nc3ccc(Cl)cc3F)c(C#N)cnc2cn1
87 to 89 | COC(=O)[C@@H]1CSSCC(C)(C)C(=O)N1
150 to 151 | COc1ccc(CCc2nnc(-c3ccc4nccn4c3)o2)cc1C(F)(F)F
142 to 143 | CNc1cc(S(=O)(=O)c2ccccc2)ccn1
102 to 108 | CC(C)CCC(O)C(CC1CCCCC1)NC(=O)C(Cc1c[nH]cn1)N(C)C(=O)C(Cc1ccccc1)NC(=O)N1CCOCC1 (stereo not given)
160 | Cc1nc2c(OCc3ccccc3)cc(C(=O)N(C)C)cn2c1C
71 to 73 | CC1N(CCCCCl)C(=O)C(C)(C)S1(=O)=O (stereo not given)
197 to 199 | O=C1N(Cc2ccccn2)c2ccccc2C12COc1c(Cl)cc3c(c12)OCCO3 (stereo not given)
169 to 171 | CC1CCCN(C(=O)C2C(C)c3ccccc3N2c2ccc(Cl)nn2)C1 (stereo not given)
87.2 to 88 | Cc1c(N)c([N+](=O)[O-])cc(F)c1F
144 to 146 | CCCCc1oc2ccccc2c1-c1ncc(-c2ccc3c(Br)c(OCC#N)ccc3c2)o1
